From patent US6124328A, “Methods and compositions for stimulating neurite growth” (Vertex Pharmaceuticals Incorporated, priority 1997, dated 2000)

Target: FKBP12 (Homo sapiens, UniProt P62942)
Assay: FKBP12 Binding Assay: inhibition of FKBP rotomase activity (cis-N-succinyl-Ala-Ala-Pro-Phe-p-nitroanilide / chymotrypsin), apparent Ki
Type: biochemical
Details: Table 1a, formula Ia, compound 0.1 nM-10 μM
Description: Preferably, the assay measures inhibition of FKBP12 rotomase activity. Such an assay has also been described by M. W. Harding et al., supra and by J. J. Siekierka et al., supra. In this assay the isomerization of an artificial substrate--N-succinyl-Ala-Ala-Pro-Phe-p-nitroanilide--is followed spectrophotometrically. The assay includes the cis form of the substrate, FKBP12, the inhibitor and chymotrypsin. Chymotrypsin is able to cleave p-nitroanilide from the trans form of the substrate, but not the cis form. Release of p-nitroanilide is measured.
In this assay various quantities of FKBP12 binding compound (0.1 nM-10 μM) were added to cis-N-succinyl-Ala-Ala-Pro-Phe-p-nitroanilide in the presence of FKBP12 and chymotrypsin. FKBP12 converts the cis form of the substrate to the trans form. This allows chymotrypsin to cleave p-nitroanilide from the substrate. Release of p-nitroanilide was measured spectrophotometrically.

Chain of FKBP12 (P62942 whole entry): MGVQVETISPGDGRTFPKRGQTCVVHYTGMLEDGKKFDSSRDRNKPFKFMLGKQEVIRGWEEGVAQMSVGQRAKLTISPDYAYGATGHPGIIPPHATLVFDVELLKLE

Compound	Ki [µM]
O=C(Cc1ccccc1[N+](=O)[O-])C(=O)N1CCCC[C@H]1C(=O)OCc1ccccc1 [Ia B=Benzyl, D=2-Nitrobenzyl, n=2]	26

Same assay, conditions: Table 1c, formula Ic, compound 0.1 nM-10 μM

Compound	Ki [µM]
CCOC(=O)CN(Cc1ccccc1)C(=O)C(=O)OC	> 1200

Same assay, conditions: Table 2, formula II', compound 0.1 nM-10 μM

Compound	Ki [µM]
COc1cc(C(=O)C(=O)N2CCCC[C@H]2C(=O)OC(C)c2cc(OCc3ccsc3)c(OCc3ccsc3)c(OCc3ccsc3)c2)cc(OC)c1OC (some centres unmarked) [compound 82]	> 5
COc1ccc(C(=O)C(=O)N2CCCC[C@H]2C(=O)OC(CCCc2ccccc2)c2cccc(OCc3ccncc3)c2)cc1OC (some centres unmarked) [compound 93]	0.0075
C=CCC(OC(=O)[C@@H]1CCCCN1C(=O)C(=O)c1cc(OC)c(OC)c(OC)c1)c1cc(OCc2ccncc2)c(OCc2ccncc2)c(OCc2ccncc2)c1 (some centres unmarked) [compound 118]	0.012
CC(C)(C)C(=O)C(=O)N1CCC[C@H]1C(=O)OC(CCCc1ccccc1)CCCc1cccnc1 (some centres unmarked) [compound 105]	0.34
COc1cc(C(=O)C(=O)N2CCCC[C@H]2C(=O)OC(CCCc2ccccc2)c2ccc(OCc3ccncc3)c(OCc3ccncc3)c2)cc(OC)c1OC (some centres unmarked) [compound 65]	0.0041
COc1cc(C(=O)C(=O)N2CCCC[C@H]2C(=O)OC(C)c2cc(OCc3ccccc3)c(OCc3ccccc3)c(OCc3ccccc3)c2)cc(OC)c1OC (some centres unmarked) [compound 90]	2.6
C=CC(OC(=O)[C@@H]1CCCCN1C(=O)C(=O)c1cc(OC)c(OC)c(OC)c1)c1cc(OCc2ccncc2)c(OCc2ccncc2)c(OCc2ccncc2)c1 (some centres unmarked) [compound 78]	0.073
COc1cc(C(=O)C(=O)N2CCCC[C@H]2C(=O)OC(CCCc2ccccc2)CCCc2ccc(C(=O)Nc3ccccn3)cc2)cc(OC)c1OC (some centres unmarked) [compound 60]	0.002
COc1cc(C(=O)C(=O)N2CCCC[C@H]2C(=O)OC(CCCc2ccccc2)CCCn2cnc3cncnc32)cc(OC)c1OC (some centres unmarked) [compound 25]	0.0022
COc1cc(C(=O)C(=O)N2CCCC[C@H]2C(=O)OC(CCCc2ccccc2)CCCc2ccc[n+]([O-])c2)cc(OC)c1OC (some centres unmarked) [compound 22]	0.007
COc1cc(C(=O)C(=O)N2CCCC[C@H]2C(=O)OC(c2cc(OCc3ccncc3)c(OCc3ccncc3)c(OCc3ccncc3)c2)C(C)C)cc(OC)c1OC (some centres unmarked) [compound 115]	0.00039
C=CCOCC#CC(CCCc1ccccc1)OC(=O)[C@@H]1CCCCN1C(=O)C(=O)c1cc(OC)c(OC)c(OC)c1 (some centres unmarked) [compound 46]	0.005
COc1cc(C(=O)C(=O)N2CCCC[C@H]2C(=O)OC(C)c2ccc(OCc3ccncc3)c(OCc3ccncc3)c2OC(C)C)cc(OC)c1OC (some centres unmarked) [compound 85]	0.0035
COc1ccc(C(=O)C(=O)N2CCCC[C@H]2C(=O)OC(CCCc2ccccc2)c2cccc(C(=O)c3ccncc3)c2)cc1C/C=C/c1ccccc1 (some centres unmarked) [compound 98]	0.38
COc1ccc(C(=O)C(=O)N2CCCC[C@H]2C(=O)OC(CCCc2ccccc2)c2ccc(C(=O)c3ccncc3)cc2)cc1OCc1ccccc1 (some centres unmarked) [compound 100]	> 5
COc1cc(C(=O)C(=O)N2CCCC[C@H]2C(=O)OC(CCCc2ccccc2)c2ccc(C(=O)c3ccncc3)cc2)cc(OC)c1OCc1ccccc1 (some centres unmarked) [compound 99]	15
COc1cc(C(=O)C(=O)N2CCCC[C@H]2C(=O)OC(CCCc2ccccc2)c2cccc(CO)c2)cc(OC)c1OC (some centres unmarked) [compound 37]	0.0068
COc1ccc(C(=O)C(=O)N2CCCC[C@H]2C(=O)OC(CCCc2ccccc2)c2ccccc2)cc1OCc1ccccc1 (some centres unmarked) [compound 103]	24
COc1cc(C(=O)C(=O)N2CCCC[C@H]2C(=O)OC(CCCc2ccccc2)c2ccc(OCc3ccncc3)c(C(=O)N3CCOCC3)c2)cc(OC)c1OC (some centres unmarked) [compound 68]	0.002
COc1cc(C(=O)C(=O)N2CCC[C@H]2C(=O)OC(COCc2ccccc2)COCc2ccccc2)cc(OC)c1OC [compound 107]	75
COc1ccc(CCC(CCCc2ccccc2)OC(=O)[C@@H]2CCCCN2C(=O)C(=O)c2cc(OC)c(OC)c(OC)c2)cc1 (some centres unmarked) [compound 13]	0.0035

Compound	Ki [µM]
COc1cc(C(=O)C(=O)N2CCCC[C@H]2C(=O)OC(C)c2cc(OCc3ccsc3)c(OCc3ccsc3)c(OCc3ccsc3)c2)cc(OC)c1OC (some centres unmarked) [compound 83]	> 1
C=CCOCCC(CCCc1ccccc1)OC(=O)[C@@H]1CCCCN1C(=O)C(=O)c1cc(OC)c(OC)c(OC)c1 (some centres unmarked) [compound 50]	0.011
C=CC(OC(=O)[C@@H]1CCCCN1C(=O)C(=O)c1cc(OC)c(OC)c(OC)c1)c1cc(OCc2ccncc2)c(OCc2ccncc2)c(OCc2ccncc2)c1 (some centres unmarked) [compound 79]	0.0023
C=CCOCCCCC(CCCc1ccccc1)OC(=O)[C@@H]1CCCCN1C(=O)C(=O)c1cc(OC)c(OC)c(OC)c1 (some centres unmarked) [compound 45]	0.007
COc1cc(C(=O)C(=O)N2CCCC[C@H]2C(=O)OC(CCCc2cccnc2)c2cccnc2)cc(OC)c1OC (some centres unmarked) [compound 61]	0.01
COc1cc(C(=O)C(=O)N2CCCC[C@H]2C(=O)OC(c2ccccc2)c2cccc(Oc3ccccc3)c2)cc(OC)c1OC (some centres unmarked) [compound 5]	4
COc1cc(C(=O)C(=O)N2CCCC[C@H]2C(=O)OC(CCCc2ccccc2)CCCc2ccc(C(=O)N3CCN(Cc4ccccc4)CC3)cc2)cc(OC)c1OC (some centres unmarked) [compound 58]	0.03
COc1cc(C(=O)C(=O)N2CCCC[C@H]2C(=O)OC(CCCc2ccccc2)CCCn2ccc3cccnc32)cc(OC)c1OC (some centres unmarked) [compound 23]	0.009
COc1cc(C(=O)C(=O)N2CCCC[C@H]2C(=O)OC(CCCc2ccccc2)c2ccccc2)cc(OC)c1OCc1ccccc1 (some centres unmarked) [compound 104]	1.7
COc1cc(C(=O)C(=O)N2CCC[C@H]2C(=O)OC(C)c2cc(OCc3ccncc3)c(OCc3ccncc3)c(OCc3ccncc3)c2)cc(OC)c1OC (some centres unmarked) [compound 87]	0.36
C=CCC(OC(=O)[C@@H]1CCCCN1C(=O)C(=O)c1cc(OC)c(OC)c(OC)c1)c1ccc(OCc2ccncc2)c(OCc2ccncc2)c1 (some centres unmarked) [compound 62]	0.062
COc1cc(C(=O)C(=O)N2CCCC[C@H]2C(=O)OC(C)c2cc(OCc3ccncc3)cc(OCc3ccncc3)c2)cc(OC)c1OC (some centres unmarked) [compound 71]	0.014
COc1cc(C(=O)C(=O)N2CCCC[C@H]2C(=O)OC(C)c2cc(OCc3ccncc3)c(C)c(OCc3ccncc3)c2)cc(OC)c1OC (some centres unmarked) [compound 73]	0.036
C=CCOc1cc(C(=O)C(=O)N2CCCC[C@H]2C(=O)OC(CCCc2ccccc2)c2cccc(C(=O)c3ccncc3)c2)ccc1OC (some centres unmarked) [compound 97]	0.017
COc1cc(C(=O)C(=O)N2CCCC[C@H]2C(=O)OC(C)c2cc(OCc3ccccc3)cc(OCc3ccccc3)c2)cc(OC)c1OC (some centres unmarked) [compound 49]	3.4
COc1cc(C(=O)C(=O)N2CCCC[C@H]2C(=O)OC(CCCc2ccccc2)c2cccc(C(=O)N3CCOCC3)c2)cc(OC)c1OC (some centres unmarked) [compound 56]	0.0061
COc1cc(C(=O)C(=O)N2CCCC[C@H]2C(=O)OC(C)c2ccc(OCc3ccncc3)c(OCc3ccncc3)c2)cc(OC)c1OC (some centres unmarked) [compound 66]	0.035
COc1cc(C(=O)C(=O)N2CCCC[C@H]2C(=O)OC(CCCc2ccccc2)c2cccc(C(=O)c3cccnc3)c2)cc(OC)c1OC (some centres unmarked) [compound 91]	0.024
C=CCOC/C=C/C(CCCc1ccccc1)OC(=O)[C@@H]1CCCCN1C(=O)C(=O)c1cc(OC)c(OC)c(OC)c1 (some centres unmarked) [compound 51]	0.0028
COc1cc(C(=O)C(=O)N2CCCC[C@H]2C(=O)OC(CCCc2ccccc2)CCCc2ccccn2)cc(OC)c1OC (some centres unmarked) [compound 20]	0.0065
COc1cc(C(=O)C(=O)N2CCCC[C@H]2C(=O)OC(CCCc2ccccc2)c2ccc(OCc3ccncc3)c(OCc3ccncc3)c2OCc2ccncc2)cc(OC)c1OC (some centres unmarked) [compound 67]	0.046
